Data reported in patent publication EP0299434B1, “High pH recovery of neutral amino acids” (GENENCOR INTERNATIONAL, INC., priority 1987, dated 1989).

Assay: solution pKa (pH at which the solubility versus pH curve changes slope)
Assay type: physicochemical
Text: The theoretical pKa of a neutral amino acid is a rigorously defined parameter which is independent of temperature and the presence of other components. In accordance with the present invention, the important pKa is the solution pKa which takes into account the actual characteristics of the solution. Thus, the pKa of the neutral amino acid in the actual solution from which it is desired to precipitate the amino acid must be measured. The "solution pKa" is the pH at which the solubility versus pH curve for the solution in question changes slope. For example, if the log of the concentration at saturation is plotted versus pH, two straight line portions of the curve will be noted. The intersection of these straight line portions when extended is considered to be the solution pKa of this solution under the conditions of the test. The solution pKa will depend on the other components in the solution, for example the base that might be present, the temperature and other factors.

SMILES: N[C@@H](Cc1c[nH]c2ccccc12)C(=O)O [tryptophan]
- pKa (ion exchange eluate concentrated by reverse osmosis, 37°C, ion exchange eluate concentrated by reverse osmosis (Example 4)): ~8.9
- pKa (ion exchange eluate evaporated at 60°C, ion exchange eluate evaporated at 60°C (Example 6)): ~8.2
- pKa (ion exchange eluate redissolved with ammonium hydroxide, 30°C, ammonia stripping): 9
- pKa (ion exchange eluate redissolved with ammonium hydroxide, 39°C, ammonia stripping): 8.8
- pKa (ion exchange eluate redissolved with ammonium hydroxide, 55°C, ammonia stripping): 8.4
- pKa (saturation curve of Fig. 1): ~9.2
